Reference: US20220378801A1, “NOVEL COMPOUNDS” (AC Immune SA, priority 2019, published 2022)

Legend:
Assay type in all cases: cell-based
[1] = target: T1, NLRP3 inflammasome (Homo sapiens, UniProt Q96P20); experiment: NLRP3 inflammasome activation assay, IL-1 beta release, HMDM cells, MSU stimulation; conditions: LPS-primed primary human monocyte-derived macrophages; MSU 150 μg/ml 3 h; IL-1β by AlphaLISA
Description: (§1) The following assays can be used to determine the inhibitory activity of test compounds on the NLRP3 inflammasome using common stimuli nigericin (Invivogen) or monosodium urate crystals (MSU)(Invivogen).
(§2) Human monocyte-like cells are cultured in RPM11640 Glutamax medium supplemented with 10% heat inactivated FCS and 50 U/ml penicillin-streptomycin (Life Technologies). HMDM (Human Monocyte Derived Macrophage) are isolated from human blood with leucosep tubes and classical monocyte isolation kit from Miltenyi based on negative selection.
(§3) Primary human monocyte-derived macrophages (HMDM) are seeded at 30000 per well in a 96 well plate and differentiated into macrophages with 10 ng/ml Human M-CSF (Macrophage Colony Stimulating Factor). At DIV 8 (Day in vitro) medium containing 10 ng/ml LPS is added. After 3 h of LPS priming, concentrations of test compound in the range from […] are added 30 min prior to NLRP3 inflammasome stimulation with Nigericin 2.5 μM or MSU 150 μg/ml for 3 h.
(§4) For IL-1β quantification, supernatants are analyzed using AlphaLISA kits according to the manufacturer's instructions (Perkin Elmer AlphaLISA AL220F).
(§5) IC50 (concentration corresponding to 50% inhibition) were determined using GraphPad Prism 8.

[2] = target: T1, NLRP3 inflammasome; experiment: NLRP3 inflammasome activation assay, IL-1 beta release, human monocyte-like cells, MSU stimulation; design: endogenous in cells; conditions: PMA-differentiated, LPS-primed human monocyte-like cells; MSU 150 μg/ml 3 h; IL-1β by AlphaLISA
Description: as §1, §2
(§6) NLRP3 inflammasome activation assays Human monocyte-like cells are seeded at 75000 per well in a 96 well plate and differentiated overnight into macrophages with 10 ng/ml PMA (Phorbol Myristate Acetate). The following day, medium containing 10 ng/ml LPS (lipopolysaccharide) is added. After 3 h of LPS priming, concentrations of test compound in the range from 100 μM to 6 nM are added 30 min prior to NLRP3 inflammasome stimulation with Nigericin 3.75 μM or MSU 150 μg/ml for 3 h.
as §4, §5

[3] = target: T1, NLRP3 inflammasome; experiment: NLRP3 inflammasome activation assay, IL-1 beta release, human monocyte-like cells, Nigericin stimulation; design: endogenous in cells; conditions: PMA-differentiated, LPS-primed human monocyte-like cells; Nigericin 3.75 μM 3 h; IL-1β by AlphaLISA
Description: as §1, §2, §6, §4, §5

[4] = target: T1, NLRP3 inflammasome; experiment: NLRP3 inflammasome activation assay, IL-1 beta release, HMDM cells, Nigericin stimulation; conditions: LPS-primed primary human monocyte-derived macrophages; Nigericin 2.5 μM 3 h; IL-1β by AlphaLISA
Description: as §1, §2, §3, §4, §5

T1 sequence (Q96P20 whole entry): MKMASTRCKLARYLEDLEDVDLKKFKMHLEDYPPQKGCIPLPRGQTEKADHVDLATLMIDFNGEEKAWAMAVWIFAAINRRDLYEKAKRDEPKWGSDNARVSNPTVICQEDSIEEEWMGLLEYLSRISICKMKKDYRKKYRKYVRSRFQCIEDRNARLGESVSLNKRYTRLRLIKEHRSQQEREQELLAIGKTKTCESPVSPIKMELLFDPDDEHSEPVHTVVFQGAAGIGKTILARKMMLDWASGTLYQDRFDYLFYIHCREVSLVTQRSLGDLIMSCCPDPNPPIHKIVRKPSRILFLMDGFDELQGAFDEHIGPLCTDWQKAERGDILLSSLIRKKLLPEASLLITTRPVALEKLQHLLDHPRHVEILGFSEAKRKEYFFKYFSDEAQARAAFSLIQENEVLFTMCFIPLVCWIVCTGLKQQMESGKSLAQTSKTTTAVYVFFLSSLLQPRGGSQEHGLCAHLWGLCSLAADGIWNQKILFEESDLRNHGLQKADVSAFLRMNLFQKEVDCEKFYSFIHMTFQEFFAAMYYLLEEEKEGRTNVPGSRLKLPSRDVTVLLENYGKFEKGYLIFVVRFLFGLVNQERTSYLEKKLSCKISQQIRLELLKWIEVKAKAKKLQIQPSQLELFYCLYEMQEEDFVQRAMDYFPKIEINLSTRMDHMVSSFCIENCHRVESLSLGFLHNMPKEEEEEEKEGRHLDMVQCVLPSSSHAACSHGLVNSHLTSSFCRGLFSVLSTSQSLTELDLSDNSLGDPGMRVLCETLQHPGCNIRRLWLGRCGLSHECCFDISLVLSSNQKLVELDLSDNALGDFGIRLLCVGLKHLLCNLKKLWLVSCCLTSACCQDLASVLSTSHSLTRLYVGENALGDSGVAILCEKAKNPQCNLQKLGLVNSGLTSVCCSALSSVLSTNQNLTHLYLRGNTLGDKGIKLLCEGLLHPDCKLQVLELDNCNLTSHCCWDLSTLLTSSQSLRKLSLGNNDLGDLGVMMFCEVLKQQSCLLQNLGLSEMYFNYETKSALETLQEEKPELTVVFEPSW

Row | Compound | IC50 [1] [nM] | IC50 [2] [nM] | IC50 [3] [nM] | IC50 [4] [nM]
1 | O=C(Nc1c2c(cc3c1CCC3)CCC2)NS1(=O)=NC(=O)c2sccc21 (single isomer, unassigned) [Example 35] | 1000 to 10000 | < 1000 | 1000 to 10000 | 
2 | O=C(Nc1cc2c(c3c1CCC3)CCC2)NS1(=O)=NC(=O)c2ccccc21 (centres unmarked) [Example 6] | 1000 to 10000 | 1000 to 10000 | 1000 to 10000 | 
3 | O=C(N=S1(=O)NC(=O)c2ccccc21)Nc1c2c(cc3c1CCC3)CCC2 (racemic) [Example 1] | < 1000 | < 1000 | 1000 to 10000 | 1000 to 10000
4 | O=C(Nc1c(Br)ccc2c1CCO2)NS1(=O)=NC(=O)c2sccc21 (single isomer, unassigned) [Example 56] |  | 1000 to 10000 | 10000 to 30000 | 
5 | O=C(Nc1c2c(cc3c1CCC3)CCC2)NS1(=O)=NC(=O)c2ccc(Cl)cc21 (single isomer, unassigned) [Example 45] |  | < 1000 | 1000 to 10000 | 
6 | O=C(Nc1c2c(cc3c1CCC3)CCC2)NS1(=O)=NC(=O)c2ccccc2C1 (single isomer, unassigned) [Example 33] |  | < 1000 | 1000 to 10000 | 
7 | O=C(N=S1(=O)NC(=O)c2ccc(Br)cc21)Nc1c2c(cc3c1CCC3)CCC2 (centres unmarked) [Example 24] | 1000 to 10000 | < 1000 | 1000 to 10000 | 
8 | Cc1cccc2c1C(=O)N=S2(=O)NC(=O)Nc1c2c(cc3c1CCC3)CCC2 (single isomer, unassigned) [Example 47] |  | < 1000 | 1000 to 10000 | 
9 | O=C(Nc1c2c(cc3c1CCC3)CCC2)NS1(=O)=NC(=O)c2c(F)cccc21 (single isomer, unassigned) [Example 61] |  | < 1000 | 1000 to 10000 | 
10 | O=C(N=S1(=O)NC(=O)c2ccc(Br)cc21)Nc1c2c(cc3c1CCC3)CCC2 (single isomer, unassigned) [Example 60] | < 1000 | < 1000 | < 1000 | 1000 to 10000
11 | O=C(Nc1c2c(cc3c1CCC3)CCC2)NS1(=O)=NC(=O)c2ccc(F)cc21 (centres unmarked) [Example 28] |  | < 1000 | 1000 to 10000 | 
12 | COc1cc(-c2ccc3c(c2NC(=O)NS2(=O)=NC(=O)c4sccc42)CCC3)ccn1 (single isomer, unassigned) [Example 52] |  | 1000 to 10000 | 1000 to 10000 | 
13 | O=C(Nc1c2c(cc3c1CCC3)CCC2)NS1(=O)=NC(=O)c2ccncc21 (centres unmarked) [Example 7] | 1000 to 10000 | < 1000 | 1000 to 10000 | 
14 | Cc1cccc2c1C(=O)N=S2(=O)NC(=O)Nc1c2c(cc3c1CCC3)CCC2 (single isomer, unassigned) [Example 46] |  | < 1000 | 1000 to 10000 | 
15 | O=C(Nc1c2c(cc3c1CCC3)CCC2)NS1(=O)=NC(=O)c2ccc(Cl)cc21 (centres unmarked) [Example 13] |  | < 1000 | 1000 to 10000 | 
16 | O=C(N=S1(=O)NC(=O)c2cccnc21)Nc1c2c(cc3c1CCC3)CCC2 (single isomer, unassigned) [Example 32] |  | < 1000 | 1000 to 10000 | 
17 | COc1cc(-c2cc(F)cc(C(C)C)c2NC(=O)NS2(=O)=NC(=O)c3sccc32)ccn1 (centres unmarked) [Example 17] |  | < 1000 | < 1000 | 
18 | O=C(Nc1c2c(cc3c1CCC3)CCC2)NS1(=O)=NC(=O)c2ccc(F)cc21 (single isomer, unassigned) [Example 63] | 1000 to 10000 | < 1000 | 1000 to 10000 | 
19 | O=C(Nc1c2c(cc3c1CCC3)CCC2)NS1(=O)=NC(=O)c2ncccc21 (single isomer, unassigned) [Example 39] |  | 1000 to 10000 | 1000 to 10000 | 
20 | O=C(N=S1(=O)NC(=O)c2cccnc21)Nc1c2c(cc3c1CCC3)CCC2 (centres unmarked) [Example 2] | 1000 to 10000 | < 1000 | 1000 to 10000 | 
21 | O=C(Nc1c2c(cc3c1CCC3)CCC2)NS1(=O)=NC(=O)c2ccncc21 (single isomer, unassigned) [Example 38] |  | < 1000 | 1000 to 10000 | 
22 | O=C(Nc1c2c(cc3c1CCC3)CCC2)NS1(=O)=NC(=O)c2c(Cl)cccc21 (single isomer, unassigned) [Example 43] |  | < 1000 | 1000 to 10000 | 
23 | COc1cc(-c2cc(F)cc(C(C)C)c2NC(=O)NS2(=O)=NC(=O)c3sccc32)ccn1 (single isomer, unassigned) [Example 51] |  | < 1000 | < 1000 | 
24 | N#Cc1ccc2c(c1)C(=O)N=S2(=O)NC(=O)Nc1c2c(cc3c1CCC3)CCC2 (centres unmarked) [Example 10] |  | < 1000 | 1000 to 10000 | 
25 | CC(C)(O)c1ccc2c(c1)S(=O)(=NC(=O)Nc1c3c(cc4c1CCC4)CCC3)NC2=O (single isomer, unassigned) [Example 40] | 1000 to 10000 | < 1000 | 1000 to 10000 | 
26 | COc1ccc2c(c1)C(=O)N=S2(=O)NC(=O)Nc1c2c(cc3c1CCC3)CCC2 (centres unmarked) [Example 22] |  | < 1000 | 1000 to 10000 | 
27 | O=C(Nc1c2c(cc3c1CCC3)CCC2)NS1(=O)=NC(=O)c2cc(Br)ccc21 (single isomer, unassigned) [Example 58] |  | < 1000 | 1000 to 10000 | 
28 | O=C(N=S1(=O)NC(=O)c2ccc(C(F)(F)F)cc21)Nc1c2c(cc3c1CCC3)CCC2 (centres unmarked) [Example 27] |  | < 1000 | 1000 to 10000 | 
29 | O=C(Nc1c2c(cc3c1CCC3)CCC2)NS1(=O)=NC(=O)c2ncccc21 (centres unmarked) [Example 8] |  | 1000 to 10000 | 1000 to 10000 | 

Next, values leading:

Row | IC50 [1] [nM] | IC50 [2] [nM] | IC50 [3] [nM] | IC50 [4] [nM] | Compound
30 |  | < 1000 | < 1000 | 1000 to 10000 | O=C(Nc1c2c(cc3c1CCC3)CCC2)NS1(=O)=NC(=O)c2nc(Cl)ccc21 (single isomer, unassigned) [Example 64]
31 | 1000 to 10000 | < 1000 | 1000 to 10000 | 1000 to 10000 | Cc1cccc2c1C(=O)N=S2(=O)NC(=O)Nc1c2c(cc3c1CCC3)CCC2 (centres unmarked) [Example 14]
32 |  | 1000 to 10000 | 1000 to 10000 |  | COC(=O)c1ccc2c(c1)S(=O)(=NC(=O)Nc1c3c(cc4c1CCC4)CCC3)NC2=O (centres unmarked) [Example 9]
33 | < 1000 | < 1000 | < 1000 | 1000 to 10000 | O=C(Nc1c2c(c(F)c3c1CCC3)CCC2)NS1(=O)=NC(=O)c2ccccc21 (single isomer, unassigned) [Example 37]
34 |  | < 1000 | 1000 to 10000 |  | CC(C)c1ccc2c(c1NC(=O)NS1(=O)=NC(=O)c3sccc31)CCO2 (single isomer, unassigned) [Example 49]
35 | < 1000 | < 1000 | < 1000 | < 1000 | O=C(Nc1c2c(c(F)c3c1CCC3)CCC2)NS1(=O)=NC(=O)c2sccc21 (centres unmarked) [Example 19]
36 |  | 1000 to 10000 | 1000 to 10000 |  | COc1cc(-c2cc(F)cc(C(C)C)c2NC(=O)NS2(=O)=NC(=O)c3sccc32)ccn1 (single isomer, unassigned) [Example 50]
37 | < 1000 | < 1000 | < 1000 | < 1000 | O=C(Nc1c2c(cc3c1CCC3)CCC2)NS1(=O)=NC(=O)c2sccc21 (single isomer, unassigned) [Example 36]
38 |  | 1000 to 10000 | 1000 to 10000 |  | O=C(Nc1c2c(cc3c1CCC3)CCC2)NS1(=O)=NC(=O)c2cc(Br)ccc21 (single isomer, unassigned) [Example 59]
39 |  | < 1000 | < 1000 |  | COc1cc(-c2ccc3c(c2NC(=O)NS2(=O)=NC(=O)c4sccc42)CCC3)ccn1 (single isomer, unassigned) [Example 53]
40 | 1000 to 10000 | 1000 to 10000 | 1000 to 10000 |  | O=C(Nc1c2c(cc3c1CCC3)CCC2)NS1(=O)=NC(=O)c2cc(Cl)ccc21 (centres unmarked) [Example 12]
41 | < 1000 | < 1000 | 1000 to 10000 |  | O=C(Nc1c2c(cc3c1CCC3)CCC2)NS1(=O)=NC(=O)c2cc(F)ccc21 (centres unmarked) [Example 26]
42 |  | < 1000 | 1000 to 10000 |  | O=C(Nc1c2c(cc3c1CCC3)CCC2)NS1(=O)=NC(=O)c2cc(Br)ccc21 (centres unmarked) [Example 23]
43 | 1000 to 10000 | < 1000 | 1000 to 10000 |  | O=C(Nc1c2c(c(F)c3c1CCC3)CCC2)NS1(=O)=NC(=O)c2sccc21 (single isomer, unassigned) [Example 54]
44 |  | < 1000 | 1000 to 10000 |  | O=C(Nc1c2c(cc3c1CCC3)CCC2)NS1(=O)=NC(=O)c2cc(Cl)ccc21 (single isomer, unassigned) [Example 44]
45 | < 1000 | < 1000 | 1000 to 10000 |  | O=C(Nc1c2c(cc3c1CCC3)CCC2)NS1(=O)=NC(=O)c2c(F)cccc21 (centres unmarked) [Example 25]
46 |  | < 1000 | < 1000 |  | COc1ccc2c(c1)S(=O)(NC(=O)Nc1c3c(cc4c1CCC4)CCC3)=NC2=O (centres unmarked) [Example 15]
